“Also recorded” adds a separate entry of the source.
Columns and labels:
hPCSK9 = hPCSK9 (Homo sapiens, UniProt Q8NBP7); settings: cited from earlier work
[1] = system: normolipidemic male Syrian hamsters; settings: Study 1, single s.c. 1, 3, or 10 mg/kg, data not shown
[2] = system: normolipidemic male Syrian hamsters; assay: Study 2: serum lipids, atorvastatin twice daily with and without single s.c. 316P in normolipidemic hamsters; type: in vivo, Mesocricetus auratus
[3] = system: hepatic low density lipoprotein receptor (LDLR) protein; assay: Study 2: hepatic LDLR levels by Western blot; type: in vivo, Mesocricetus auratus; settings: Study 2, Western blot; 316P 10 mg/kg, atorvastatin 2×20 mg/kg
[4] = system: normolipidemic male Syrian hamsters; settings: in vivo, sc
Method: (§1) Male Syrian hamsters (strain RjHan: AURA in Study 1 and Bio™ F1B in Study 2), weighing between 90 and 100 g, were purchased from Janvier, Germany, and were allowed to acclimatize for a period of 7 days before entering the study.
(§2) The investigation was divided into 2 studies. […] For each study, body weight and food consumption (weight changes in chow) were measured once a week, starting 1 week before dosing. […] In Study 1, samples were taken on Days −6, 1, 7, 14, 21, and 28; in Study 2, samples were taken on Days −7, 0, 3, and 7. Serum was obtained after centrifugation using Serum-Gel® tubes (Sarstedt, Nümbrecht, Germany).
(§3) At the end of each study, animals were sacrificed in a nonfasted state and liver was immediately weighed and shock frozen on dry ice.
(§4) All data are expressed as means±standard error of the mean (SEM) and were tested for normality and variance homogeneity before analysis. […] In Study 1, the vehicle-treated control versus treatment-naive control group was analyzed separately using 2-way ANOVA followed by the Dunnett test. A P value of ≦0.05 was considered statistically significant. Food consumption and safety parameters (AST, ALT, AP, and CK) were descriptively evaluated.

[5] = biological target: hPCSK9 D238 mutated (D238R) (Homo sapiens, UniProt Q8NBP7, D238R); settings: cited from earlier work
Chain of hPCSK9 D238 mutated (D238R) (Q8NBP7 153-692 D238R): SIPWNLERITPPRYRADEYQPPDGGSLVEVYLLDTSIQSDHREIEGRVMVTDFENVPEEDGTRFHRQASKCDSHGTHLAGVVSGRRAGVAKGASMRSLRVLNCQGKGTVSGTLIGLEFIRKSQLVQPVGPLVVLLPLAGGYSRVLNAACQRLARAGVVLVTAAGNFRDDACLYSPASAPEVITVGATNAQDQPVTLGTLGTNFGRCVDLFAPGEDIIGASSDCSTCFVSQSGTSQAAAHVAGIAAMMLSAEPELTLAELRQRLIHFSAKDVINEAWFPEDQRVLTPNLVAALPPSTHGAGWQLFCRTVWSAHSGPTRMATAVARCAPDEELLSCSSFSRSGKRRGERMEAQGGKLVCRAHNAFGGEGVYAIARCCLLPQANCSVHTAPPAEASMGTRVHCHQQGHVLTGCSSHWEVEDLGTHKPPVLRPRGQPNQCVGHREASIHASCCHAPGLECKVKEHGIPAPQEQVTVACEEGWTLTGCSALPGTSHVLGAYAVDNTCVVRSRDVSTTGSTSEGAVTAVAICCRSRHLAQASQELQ

PCSK9 = settings: in hamsters; cited from earlier work
humans = settings: human phase 1 study, interim analysis, single i.v. administration; cited from earlier work
[6] = system: normolipidemic male Syrian hamsters; assay: Study 1: serum lipids after single s.c. injection in normolipidemic hamsters; type: in vivo, Mesocricetus auratus; settings: for decrease in TC: Day 7
[7] = system: normolipidemic male Syrian hamsters; assay: Study 2: safety parameters, body weight, liver weight and liver lipids
Method: as §1, §2, §3, §4

[8] = Study 1: serum 316P levels by sandwich ELISA; type: in vivo, Mesocricetus auratus; settings: Study 1, 24-hour time point, 1, 3, and 10 mg/kg
[9] = system: PCSK9-mediated down-regulation of LDL uptake via LDLR in HepG2 cells; settings: cited from earlier work
[10] = system: human HepG2 or Huh7 cells; settings: cited from earlier work
dyslipidemic hamsters = settings: cited from earlier work
[11] = Study 2, 316P single s.c. 10 mg/kg alone, sustained until Day 7
[12] = D238 mutated vs unmutated hPCSK9
[13] = Study 2, atorvastatin alone 10 or 20 mg/kg p.o. twice daily, after 7 days

Chain of hPCSK9 (Q8NBP7 153-692): as the sequence (Q8NBP7 153-692 D238R) above, with R86D counted along it

For “316P: fully human monoclonal anti-PCSK9 antibody comprising HCVR SEQ ID NO: 9 and LCVR SEQ ID NO: 10 [Antibody 316P]”, the “binding affinity for PCSK9” value (hPCSK9; in humans) is given as “high binding affinity”, the T1/2 (hPCSK9; unmutated hPCSK9) is given as roughly 37 min and the Kd (hPCSK9; unmutated hPCSK9, read-out: KD (binding affinity)) is given as roughly 1 nM. For the same molecule, the “effects on safety parameters, relative liver weight, hepatic cholesterol, TG, phospholipid concentration” value [1] was “no biologically relevant effects”, the “reduction in HDL-C” value ([2]; Study 2, 316P 10 mg/kg (groups not specified), data not shown) was “statistically significant but less pronounced than the effect on LDL-C” and the “effect on serum LDL-C” value [2, 11] was “potent effect”. For the same molecule, the “effect on serum TC” value [2, 11] was “potent effect”, the “level of hepatic LDLR expression compared with the PBS control groups” value [3] was 149% and the “level of hepatic LDLR protein versus PBS control” value [3] was 1.5 fold. The “effects on relative liver weight, hepatic cholesterol, TG or phospholipid concentration” value [4] was “no clinically relevant effects”, the “decrease of T1/2” value [5, 12] was greater than 30 fold and the “reduction in binding affinity” value [5, 12] was greater than 400 fold. The T1/2 ([5]; D238 mutated) was roughly 1 min, the Kd ([5]; D238 mutated, read-out: KD (binding affinity)) was roughly 410 nM and the “binding affinity for PCSK9” value (PCSK9) was “high binding affinity”. For the same molecule, the LDL-C reduction (humans) was “exceeded 60%”, the “duration of LDL-C reduction” value (humans) was 30 days and the “reduction in HDL-C” value ([6]; Study 1, data not shown) was “statistically significant but less pronounced than the effect on LDL-C”. For the same molecule, the “serum TG levels” value ([6]; Study 1, every dose throughout the study) was “remained relatively constant”, the “decrease in TC” value ([6]; Study 1, single s.c. 1 mg/kg) was 9% and the “maximal effect on LDL-C (reduction)” value ([6]; Study 1, single s.c. 1 mg/kg, after Day 1, vs PBS control) was 17%. The “decrease in TC” value ([6]; Study 1, single s.c. 3 mg/kg) was 17%, the “maximal effect on LDL-C (reduction)” value ([6]; Study 1, single s.c. 3 mg/kg, after Day 7, vs PBS control) was 27% and the “decrease in TC” value ([6]; Study 1, single s.c. 10 mg/kg) was 28%. For the same molecule, the “maximal effect on LDL-C (reduction)” value ([6]; Study 1, single s.c. 10 mg/kg, after Day 7, vs PBS control) was 59%, the “duration of dose-dependent decrease in LDL-C (TC and LDL-C)” value ([6]; Study 1, single s.c. 1, 3, or 10 mg/kg) was “more than 2 weeks” and the “day on which LDL-C levels reach PBS control-treated levels (0% reduction)” value ([6]; Study 1, single s.c. injection) was 28 days. The “HDL-C levels” value ([6]; highest dose 10 mg/kg, data not shown) was “significant reduction”, the “tolerability” value ([7]; Study 2) was “well tolerated” and the “serum 316P concentration vs dose” value [8] was “proportional to theoretical dosing levels”. For the same molecule, the “effect on PCSK9-mediated down-regulation of LDL uptake via LDLR” value [9] was “antagonizes”.
For `CC(C)c1nc(N(C)S(C)(=O)=O)nc(-c2ccc(F)cc2)c1/C=C/[C@@H](O)C[C@@H](O)CC(=O)O` [rosuvastatin], the “effect on the level of HNF1 alpha” value [10] is listed as “no appreciable effect”, the “increase in LDLR mRNA and protein” value [10] is listed as “≈ 2 fold” and the “increase in PCSK9 mRNA and protein” value [10] is listed as “≈ 3 fold”. For the same molecule, the “hepatic LDLR levels” value (dyslipidemic hamsters) was “reduced” and the “serum LDL-C levels” value (dyslipidemic hamsters) was “slightly increased”.
In the case of `CC(C)c1c(C(=O)Nc2ccccc2)c(-c2ccccc2)c(-c2ccc(F)cc2)n1CC[C@@H](O)C[C@@H](O)CC(=O)O` [atorvastatin], the “reduction in TG levels” value ([2]; Study 2, atorvastatin 2×20 mg/kg, after 7 days of treatment) is reported as 23%, the “reduction of serum TG levels” value ([2]; Study 2, atorvastatin alone 10 mg/kg or 20 mg/kg p.o. twice daily, after 7 days) is reported as 23% and the “effect on serum HDL-C” value [2, 13] is reported as “no significant effect”. For the same molecule, the “effect on serum LDL-C” value [2, 13] was “no significant effect”, the “effect on serum TC” value [2, 13] was “no significant effect” and the “ALT levels” value ([7]; Study 2, atorvastatin 2×10 or 20 mg/kg) was “slight, clinically insignificant increase; also recorded: biologically relevant increase”.

Source: patent US20140065649A1, “TEST SYSTEMS AND METHODS FOR IDENTIFYING AND CHARACTERISING LIPID LOWERING DRUGS” (Sanofi, priority 2011, published 2014)
